# Data reported in PMC9365315 (ACS chemical neuroscience, 2022).
# Key:
# [1] = tested on: RAW 264.7 mouse macrophages induced with LPS; experiment: Cytokine mRNA expression in LPS-induced RAW 264.7 macrophages; assay type: cell-based; conditions: 10 and 1 μM, 48 h, preliminary data
# [2] = tested on: EAE mice; experiment: Mechanical withdrawal thresholds; assay type: in vivo, mouse (C57BL/6, female); conditions: day 24 post-EAE induction; compound 5 and modafinil 10 mg/kg, Solu-Medrol 50 mg/kg p.o. days 1–10
compound,measurement,setting,value
NC(=O)C[S+]([O-])C(c1ccccc1)c1ccccc1 (racemic) [(±)-modafinil],"mRNA expression levels of TNF-α, IL-1β and IL-4Rα",[1],minimal ability to modulate
same,"Mechanical withdrawal threshold, front left paw (von Frey)",[2],decreased reflex thresholds
